Laboratory results reported in PMC10404669, “Vanillyl alcohol oxidase from Diplodia corticola: Residues Ala420 and Glu466 allow for efficient catalysis of syringyl derivatives” (The Journal of Biological Chemistry, 2023).

Molecular target: T1, DcVAO (vanillyl alcohol oxidase) (Diplodia corticola, UniProt A0A1J9QSC2)
T1 construct: gene BKCO1_4900020
Assay: specific activity of purified enzyme, xylenol orange H2O2 assay
Assay type: biochemical

T1 sequence (A0A1J9QSC2 entry or part of it): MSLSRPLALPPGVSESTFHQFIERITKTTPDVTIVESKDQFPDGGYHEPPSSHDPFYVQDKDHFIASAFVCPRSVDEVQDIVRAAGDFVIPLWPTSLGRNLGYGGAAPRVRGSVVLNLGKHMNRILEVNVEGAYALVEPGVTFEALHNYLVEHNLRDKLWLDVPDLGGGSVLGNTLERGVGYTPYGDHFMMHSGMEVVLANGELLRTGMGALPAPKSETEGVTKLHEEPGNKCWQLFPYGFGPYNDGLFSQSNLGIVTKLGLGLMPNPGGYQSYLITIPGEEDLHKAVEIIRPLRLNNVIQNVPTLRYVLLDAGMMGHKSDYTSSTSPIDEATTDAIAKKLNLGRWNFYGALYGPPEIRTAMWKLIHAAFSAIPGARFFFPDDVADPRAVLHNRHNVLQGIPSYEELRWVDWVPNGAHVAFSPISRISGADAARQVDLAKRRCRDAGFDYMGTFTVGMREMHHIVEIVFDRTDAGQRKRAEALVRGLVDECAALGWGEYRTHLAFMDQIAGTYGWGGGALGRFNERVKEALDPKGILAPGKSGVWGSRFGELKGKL

specific activity of purified enzyme, xylenol orange H2O2 assay: 6.3 ± 0.5 U mg^−1
SMILES: COc1cc(CO)cc(OC)c1O [compound 6, 4-(hydroxymethyl)-2,6-dimethoxyphenol]
